Values of other authors in US11737956B2, “Composition for intracanal medication” (MARUCHI, priority 2016, dated 2023).

Details: very small amount of dissolution in water

[Ca+2].[OH-].[OH-] [calcium hydroxide]
pH of water: 12.4
